Results: patent EP0234113A1, “2,3-Dihydro-1H-phenalene-2-amino compounds as anti-psychotic drugs” (THE UPJOHN COMPANY, priority 1985, dated 1987)
Several values for one entry are separate records, joined by “and”; a condition that tells them apart may be missing. Equal entries are not always repeated. Entries after “also recorded” stand apart in the source; their conditions may differ. Where two headings read alike, the source gives them in different places.

Key:
[1] = test system: locomotor activity; assay: Antagonism of apomorphine locomotor activity in rat; assay type: in vivo; conditions: i.a. = inactive
From the text: (§1) Table 3. […] A. Behavioral effects in the rat. B. Behavioral effects in the monkey. C. Doses required to antagonize the indicated behavioral effects of amphetamine. D. Doses required to antagonize the indicated behavioral effects of apomorphine.

[2] = test system: lethal dose of d-amphetamine; assay: Antagonism of amphetamine toxicity; assay type: in vivo
From the text: as §1

[3] = test system: Discrimination; assay: Antagonism of apomorphine discrimination; assay type: in vivo; conditions: (p) = partial activity
From the text: as §1

[4] = test system: LSD; assay: LSD ligand binding, rat brain homogenates; conditions: 1μM, - indicates ligand was displaced
[5] = test system: muscarinic; assay: Muscarinic ligand binding, rat brain homogenates; conditions: 1μM, - indicates ligand was displaced
[6] = test system: 6-OH DA Turning; assay: Antagonism of amphetamine: 6-OH DA turning; assay type: in vivo; conditions: i.a. = inactive
From the text: as §1

[7] = test system: dopamine neurons; assay: Depression of dopamine neuron firing rates by the drug alone; assay type: in vivo, rats
Description: (§2) Table 2. Dopamine neuron firing rates were recorded according to published procedures and drugs were injected intravenously in chloral hydrate anesthetized rats. A. Ability of drugs to reverse the depression in firing rates of dopamine neurons by 1 to 2 mg/kg amphetamine. The maximum effect is the maximum amount of the amphetamine effect that was reversed, even when doses were increased beyond dose causing maximum effect. An effect greater than 100% indicates excitation of the neuron beyond its' control rate whereas an effect less than 100% indicates partial agonist effects. B. Depression of dopamine neurons by full agonist apomorphine and partial agonists TDHL, (-)PPP and U-64,273A. Maximum effect is maximum depression that could be realized even after increasing doses beyong the dose causing maximum effect. For both A and B, the ED50 is the dose causing 50% of the respective antagonistic (A) or agonist (B) effect.

[8] = test system: locomotor activity; assay: Antagonism of amphetamine: locomotor activity; assay type: in vivo; conditions: i.a. = inactive
From the text: as §1

[9] = test system: dopamine neurons; assay: Reversal of amphetamine depression of dopamine neuron firing rates; assay type: in vivo, rats
Description: as §2, with “An effect greater than 100% indicates excitation of the neuron beyond its' control rate whereas an effect less than 100% indicates partial agonist effects.” left out

[10] = test system: locomotor stimulation; assay: Locomotor stimulation in reserpinized mice, drug given by itself; assay type: in vivo
From the text: Consistant with its having a minor amount of agonist activity, the overall behavioral effects of U-64,273A conform to that of a weak DA antagonist (Table 3). […] When given by itself, U-64,273A affected locomotor activities in rodents in a way resembling both DA auto-receptor and postsynaptic receptor agonists.

[11] = test system: Serotonin metabolites; assay: Serotonin metabolites in rat brain; assay type: in vivo, Sprague-Dawley rat; conditions: percentage of control; 1 mg/kg haloperidol, 10 mg/kg of clozapine, 30 mg/kg U-64,273A
[12] = test system: Apomorphone-Induced Case Climbing; assay: Apomorphine antagonism (Apomorphine gnawing test; apomorphine-induced cage climbing); assay type: in vivo, Mouse; conditions: mouse
From the text: (§3) The Effect on Body Temperature (Hypothermia) Test and the Antagonism of Apomorphone-Induced Case Climbing (ACC), (Apomorphine Gnawing Test) are described on page 1398 of the publication, Journal of Medicinal Chemistry, Vol. 22, No. 11, pp. 1390-1398, in an article entitled "6-Aryl-4H-s-triazolo[4,3-a][1,4]benzodiazepines....Action" by J. B. Hester, Jr., et al.
as §1

[13] = test system: Catalepsy; assay: Catalepsy; conditions: rat; i.a. = inactive
From the text: as §1

[14] = test system: Emesis; assay: Antagonism of apomorphine emesis; assay type: in vivo
From the text: as §1

[15] = test system: Dopamine (3H-spiperone); assay: Receptor Binding Assay with 3H-spiperone (Dopamine Binding Assay), rat brain homogenate; conditions: 1μM; rat brain homogenates; - indicates ligand was displaced
Description: The Receptor Binding Assay test for antipsychotic acitvity, was conducted as follows:
A rat brain homogenate was prepared (1) by homogenizing a whole rat brain minus the cerebellum in 10 ml of 0.05M THAM-HC1, pH 7.4, using a Polytron at a setting of 7 for 30 sec. and centrifuging at 15,000xg for 10 min. The supernatant was discarded, the pellet resuspended in 10 ml of buffer using the Polytron for 10 sec., and the centrifugation repeated. The pellet was resuspended and diluted to 100 times the original tissue weight with buffer. Then 100 ml of the homogenate was diluted to 400 ml with buffer.
The test drug was weighed out in a scintillation vial in a 1-5 mg ammount. They were dissolved by adding 0.5 ml of N-N-dimethylformamide of (DMF) and then 0.05 ml of 1M acetic acid, and vortexed to solubilize the drug. Then 10 ml of deionized and filtered water was added to the required volume. All compounds were tested at a single concentration of 1 uM.
Samples were prepared for incubation using an ^3H-spiperone (antipsychotic).
Incubation was conducted at 30°C for 30 min. on a shaking water bath. Every 30 sec., 24 tubes were filled with 1 ml of homogenate and put into the bath (this is done every 3 min. until all tubes are in the bath). Upon completion of the incubation procedure, the samples are filtered and rinsed.
The punched filters are dropped into vials, which are in turn filled with ACS liquid scintillation fluid and capped and counted in a liquid scintillation counter. Counting data is recorded and analyzed.
Results are expressed as percent decrease from control.

[16] = test system: Stereotypy; assay: Antagonism of apomorphine stereotypy; assay type: in vivo; conditions: i.a. = inactive, listed as U-64273A
From the text: as §1

[17] = test system: body temperature; assay: Hypothermia Test (effect on body temperature); assay type: in vivo, CF-1 male mice; conditions: either test: hypothermic or apomorphine antagonism
Description: as §3
For the tests here, the Hypothermia Test procedure was run as follows:
A group of four CF-1 male mice (18-22 g each) was injected intraperitoneally with the test compound prepared in 0.25 percent w/v methylcellulose in water solution. After 45 min, abdominal temperature of each mouse was measured using a thermister probe. A control group of four mice was treated with vehicle only and the temperature of the control group was taken in a similar manner. A compound was considered to have a significant effect on body temperature if the mean temperature in the test compound treated group deviated more than 3.5°C from the mean temperature of the parallel control group. Stimulants tend to elevate temperatures; depressants tend to lower body temperature.

[18] = test system: Locomotor activity; assay: Antagonism of apomorphine locomotor activity in reserpinized mouse; assay type: in vivo
From the text: as §1

[19] = test system: alpha-2; assay: Alpha-2 ligand binding, rat brain homogenates; conditions: 1μM, - indicates ligand was displaced
[20] = test system: dopamine metabolites HVA, DOPAC, and 3MT; assay: Dopamine metabolites in rat brain; assay type: in vivo; conditions: percentage of control; 3 mg/kg of chlorpromazine, 30 mg/kg clozapine or U-64,273A; Sprague-Dawley rat
[21] = test system: plasma prolactin; assay: Plasma prolactin; assay type: in vivo; conditions: cell marks this value (10), probably 10 mg/kg; Sprague-Dawley rat
[22] = test system: alpha-1; assay: Alpha-1 ligand binding, rat brain homogenates; conditions: 1μM, i.a. = inactive
[23] = test system: Conditioned Avoidance; assay: Conditioned avoidance; assay type: in vivo; conditions: rat; (p) = partial activity, i.a. = inactive
From the text: as §1

[24] = dopamine neuron firing, Table 2

CNC1Cc2cccc3cccc(c23)C1 [U-64,273A, 2,3-dihydro-N-mono-methyl-lH-phenalen-2-amine]
Locomotor activity, rat, dose required to antagonize apomorphine [1]: i.a.
Mouse Toxicity, dose required to antagonize amphetamine [2]: did not protect mice
Monkey Discrimination, dose required to antagonize apomorphine [3]: antagonized apomorphine
LSD, percentage of ligand displaced [4]: -67.3%
muscarinic, percentage of ligand displaced [5]: -11.7%
6-OH DA Turning, rat, dose required to antagonize amphetamine [6]: antagonized d-amphetamine
ED50 ([7]; Rattus norvegicus, Neuron, iv): 0.07 mg/kg
Emax ([7]; Rattus norvegicus, Neuron, iv, read-out: MAXIMUM EFFECT (per cent decrease)): 30%
agonist share [7, 24]: 30%
inhibition of DA neuronal firing when given alone (in words) ([7]; rat, in vivo): weakly inhibit
RAT locomotor activity, dose required to antagonize amphetamine [8]: i.a.
ED50 ([9]; Rattus norvegicus, Neuron, iv): 0.005 mg/kg
Emax ([9]; Rattus norvegicus, Neuron, iv, read-out: MAXIMUM EFFECT (per cent reversal)): 69%
antagonist share [9, 24]: 70%
reversal of amphetamine's depression of DA neuronal firing (in words) ([9]; intravenous, anesthetized rats): potent in reversing the effect of d-amphetamine on nigral DA neuronal firing; also recorded: not quite complete
locomotor stimulation in reserpinized mice [10]: no locomotor stimulation
5HIAA [11]: 76%
5HT [11]: 128%
5HTP [11]: 37%
Cage Climbing Mouse, dose required to antagonize apomorphine [12]: antagonized apomorphine
Catalepsy, active dose [13]: i.a.
Dog Emesis, dose required to antagonize apomorphine [14]: antagonized apomorphine
spiperone, percentage of ligand displaced [15]: relatively weak and -46.2%
Rat Stereotypy, dose required to antagonize apomorphine [16]: i.a.
active in either the hypothermic or the apomorphine antogonism test [17]: active
Locomotor activity, reserpinized mouse, 3 mg/kg (antag. of apomorphine) [18]: antagonized apomorphine
Locomotor activity, reserpinized mouse, 3 mg/kg (antag. of apomorphine) ([18]; listed as U-64273A): 47% antag.
alpha-2, percentage of ligand displaced [19]: -37.5%
3MT [20]: 50%
DOPAC [20]: 80%
Plasma Prolactin [21]: 1%
alpha-1, percentage of ligand displaced [22]: i.a.
Conditioned Avoidance, active dose [23]: suppressed conditioned avoidance behavior of rats with a limited efficacy
